# Experiments:
# [1] = system: ES cell-derived neurons; assay: Whole-cell patch clamp recording of spontaneous post-synaptic currents; type: cell-based, mouse; conditions: for Inhibition of recorded ePSCs: NBQX 5 μM and APV 50 μM
# Protocol: Electrophysiological recordings were performed at room temperature (20-25° C.) in an external solution (ACSF) containing 120 mM NaCl, 26 mM NaHCO3, 11 mM D-glucose, 2 mM KCl, 2 mM CaCl2, 1.2 mM MgSO4 and 1.2 mM KH2PO4 with an osmolarity of 290 mOsm. The recording chamber was constantly superfused at a flow rate of 1 ml/min. […] Both pipette solutions were adjusted to pH 7.3 and 300-330 mOsm/l. Whole-cell patch clamp recordings were carried out with an EPC10 amplifier (HEKA, Elektronik, Lambrecht/Pfalz, Germany) in voltage clamp mode. Signals were filtered at 4 kHz using the built-in filter of EPC10 and digitally sampled at 20 kHz except spontaneous postsynaptic currents signals that were filtered at 2.5 kHz and digitally sampled at 5 kHz. Voltage protocol generation, data acquisition and analysis were made with Pulse 8.65 (HEKA, Elektronik, Lambrecht/Pfalz, Germany). The presence of spontaneous excitatory postsynaptic currents (sEPSCs) was assessed by clamping neurons to −60 mV in the presence of 100 μM picrotoxin. The presence of spontaneous inhibitory postsynaptic currents (sIPSCs) was assessed by clamping neurons to […] in the presence of 1 μM TTX, 5 μM 2,3-dioxo-6-nitro-1,2,3,4-tetrahydrobenzo[f]quinoxaline-7-sulfonamide disodium salt (NBQX) and 50 μM D-(−)-2-amino-5-phosphonopentanoic acid (APV). To further check the nature of spontaneous postsynaptic currents, NBQX (5 μM) and APV (50 μM) were used to block AMPA and NMDA receptors respectively and picrotoxin (100 μM) was used to block GABAA receptors. Fifteen neurons were recorded for each type of PSC and for each condition (DDM or DDM+cyclo).
# [2] = system: ES cell-derived neurons; assay: Slice overlay assay on postnatal cortical slices, radial orientation; type: cell-based; conditions: 21 days of differentiation, four days after plating on mouse postnatal cortical slices
# [3] = system: ES cell-derived neurons; assay: Layer-specific cortical markers among Tuj1+ neurons (immunofluorescence); type: cell-based, mouse; conditions: of all Tuj1+ neurons, days 16-21
# Protocol: Medium was removed and cells were rinsed with PBS then fixed for 30 min in 4% paraformaldehyde (PFA) in PBS, pH 7.4 at 4° C. PFA was removed and cells were rinsed three times with PBS. Blocking of unspecific antibody activity and permeabilization was done in PBS supplemented with 5% horse serum (Invitrogen-Gibco), 3% bovine serum albumin (Sigma) and 0.3% Triton X-100 (Sigma). Incubation with primary antibodies was done in PBS supplemented with 1% horse serum, 3% bovine serum albumin and 0.1% Triton X-100 overnight at 4° C. Cells were rinsed three times with PBS and incubated with secondary antibodies in PBS supplemented with 1% horse serum, 3% bovine serum albumin and 0.1% Triton X-100 for one hour at room temperature then rinsed again three times with PBS. For double or multiple immunostaining, the process was repeated. […] For some antibodies, antigen retrieval was used before blocking: cells were boiled during 4×5 minutes in 10 mM citrate buffer (pH 6.0) and cooled down to room temperature during 20 minutes.
# (§1) For quantification of the proportion of cells expressing a specific marker (differentiation markers, region-specific markers, neurotransmitter transporter proteins or layer-specific markers), at least 300 cells from 3 independent experiments (at least 100 cells from each experiment) were counted for each time-point studied.
# We studied the expression of the following layer-specific markers corresponding to the major subtypes of cortical neurons generated in vivo in the mouse, including: Tbr1 and reelin for preplate neurons and Cajal-Retzius cells; Tle4, Tbr1, CTIP2, Otx1, Er81, FoxP2 for deep ([…]) layer neurons; Satb2 and Cux1 for upper (II/III/IV) layer neurons and callosal projection neurons of layer V (see FIG. 5).
# [4] = system: ES cell-derived neural progenitors; conditions: short BrdU pulse
# Protocol: (§2) Experimental procedures were as described in Example 1. […] Ethanol was used as control.
# For long term pulse chase experiments, BrdU (Becton Dickinson) was added to the differentiation medium on the different days during 24 h at a final concentration of 10 μM. Cells were dissociated after 21 days of differentiation and plated on coated coverslips for an additional day. For short-term BrdU uptake experiments, BrdU was added to the differentiation medium during 1 hour prior to cell dissociation and replating.
# For BrdU detection, medium was removed and cells were rinsed with PBS then fixed for 30 min in 4% paraformaldehyde (PFA) in PBS, pH 7.4 at 4° C. PFA was removed and cells were rinsed three times with PBS. BrdU was unmasked using an antigen retrieval method: cells were boiled during 4×5 minutes in 10 mM citrate buffer (pH 6.0) and cooled down to room temperature during 20 minutes. Immunostaining was performed as described above using mouse anti-BrdU (1/50, Becton Dickinson) or rat anti-BrdU (1/250, Abcam) antibodies. Multiple labelling was performed sequentially as described above.
# [5] = system: ES cell-derived neurons; assay: Morphology and Pyramidal Morphology Index (PMI) of MAP2-positive neurons; type: cell-based, mouse
# Source text: Pictures of at least 100 neurons stained for MAP2 were to taken randomly for each condition and from two different experiments and the quantification was done blindly in Adobe Photoshop Software using a 25 μm circle drawn on a superposed layer.
# [6] = system: ES cell-derived neurons; assay: Neurotransmission markers among Tuj1-positive neurons derived from ES cells (immunofluorescence); type: cell-based, mouse; conditions: of Tuj1-positive cells after 28 days of differentiation
# Protocol: Similar results were obtained with several ES cell lines, including distinct derivatives of E14 and J1 cells. ES cells were trypsinised, dissociated and plated at a density of 5×10^3 cells/cm^2 on gelatin-coated cell culture plastic dishes in ES medium. When needed, the cells were plated for 15-30 minutes on gelatin coated-dishes, to let the MEFS adhere and the supernatant containing ES cells only was recovered and subsequently replated on gelatin coated dishes. After adhesion, medium was changed to “Default Differentiation Medium” (DDM). DDM consists of DMEM/F12 (Invitrogen-Gibco) supplemented with 1×N2 supplement (100×N2 supplement consists of 8.61 μM insulin, 1 mM transferrin, 2 μM progesterone, 10.01 mM putrescine and 3.01 μM selenite; Invitrogen-Gibco), 2 mM glutamine (Invitrogen-Gibco), 1×MEM-nonessential amino acids (Invitrogen-Gibco), 1 mM sodium pyruvate (Invitrogen-Gibco), 110 μM beta-mercaptoethanol (Sigma) and 0.5 mg/ml Bovine Serum Albumine, Fraction V (Invitrogen-Gibco). Medium was changed every two days. […]
# as §1, with “studied. […]” for “studied.”
# [7] = system: ES cells; assay: Regional identity markers among Nestin-positive neural progenitors from ES cells differentiated in DDM+cyclo (immunofluorescence); type: cell-based, mouse
# Protocol: Similar results were obtained with several ES cell lines, including distinct derivatives of E14 and J1 cells. ES cells were trypsinised, dissociated and plated at a density of 5×10^3 cells/cm^2 on gelatin-coated cell culture plastic dishes in ES medium. When needed, the cells were plated for 15-30 minutes on gelatin coated-dishes, to let the MEFS adhere and the supernatant containing ES cells only was recovered and subsequently replated on gelatin coated dishes. After adhesion, medium was changed to “Default Differentiation Medium” (DDM). DDM consists of DMEM/F12 (Invitrogen-Gibco) supplemented with 1×N2 supplement (100×N2 supplement consists of 8.61 μM insulin, 1 mM transferrin, 2 μM progesterone, 10.01 mM putrescine and 3.01 μM selenite; Invitrogen-Gibco), 2 mM glutamine (Invitrogen-Gibco), 1×MEM-nonessential amino acids (Invitrogen-Gibco), 1 mM sodium pyruvate (Invitrogen-Gibco), 110 μM beta-mercaptoethanol (Sigma) and 0.5 mg/ml Bovine Serum Albumine, Fraction V (Invitrogen-Gibco). Medium was changed every two days.
# Medium was removed and cells were rinsed with PBS then fixed for 30 min in 4% paraformaldehyde (PFA) in PBS, pH 7.4 at 4° C. PFA was removed and cells were rinsed three times with PBS. Blocking of unspecific antibody activity and permeabilization was done in PBS supplemented with 5% horse serum (Invitrogen-Gibco), 3% bovine serum albumin (Sigma) and 0.3% Triton X-100 (Sigma). Incubation with primary antibodies was done in PBS supplemented with 1% horse serum, 3% bovine serum albumin and 0.1% Triton X-100 overnight at 4° C. Cells were rinsed three times with PBS and incubated with secondary antibodies in PBS supplemented with 1% horse serum, 3% bovine serum albumin and 0.1% Triton X-100 for one hour at room temperature then rinsed again three times with PBS. For double or multiple immunostaining, the process was repeated. Nuclei were stained with bisbenzimide (Hoechst#33258; Sigma) and coverslips were mounted with glycergel (DAKO). For some antibodies, antigen retrieval was used before blocking: cells were boiled during 4×5 minutes in 10 mM citrate buffer (pH 6.0) and cooled down to room temperature during 20 minutes.
# as §1, §2
# [8] = system: ES cell-derived neural progenitors; assay: Regional markers among Nestin-positive progenitors after DDM+Shh or DDM+Dkk; type: cell-based, mouse; conditions: 14 days
# Protocol: FIG. 12 illustrates that neural progenitors and neurons of ventral telencephalic identity (including cortical interneurons, striatal interneurons, striatal projections neurons) can be generated from ES cells following DDM+Shh (at 1-10 μM) or DDM+DDK Wnt inhibitor (at 100-300 ng/ml), or a combination of both (at 1 μM/100 ng/ml respectively). (A) Proportion of Nestin positive neural progenitors expressing specific neural regionalization markers following 14 days of differentiation in DDM or DDM+Shh or DDM+DKK. (B), (C) Proportion of VgluT1, VgluT2 and vGAT, and reelin, Tbr1, Isl1 among Tuj1 positive neurons after 21 days of differentiation in DDM alone or DDM+Shh or DDM+DKK, or DDM+Shh/DKK.
# To increase the proportion of ventral character of the ES cell-derived neural progenitors, we chose to increase Shh signalling, by adding soluble recombinant Shh to DDM, or to antagonize dorsalizing Wnt-signalling, by adding Dickkopf-1 (Dkk), a soluble antagonist of the Wnt pathway.
# [9] = cyclopamine 1 μM day 2 to day 10, 14 days, of Nestin-positive cells
# [10] = neurons after 28 days following differentiation in DDM
molecule,measurement,setting,value
picrotoxin,Inhibition of recorded iPSCs,"[1]; neurons after 28 days following differentiation in DDM, picrotoxin 100 μM",selective inhibition
CC1=C2C[C@H]3[C@@H](CC=C4C[C@@H](O)CC[C@@]43C)[C@@H]2CC[C@]12O[C@@H]1C[C@H](C)CN[C@H]1[C@H]2C [cyclopamine],Neurons displaying a radial orientation,[2],64.98+/−2.40%
same,CTIP2 expressing neurons,[3],36.01+/−1.52%
same,Cux1 expressing neurons,[3],10.56+/−0.80%
same,Otx1 expressing neurons,[3],15.42+/−1.06%
same,Satb2 expressing neurons,[3],7.60+/−0.78%
same,Tbr1 expressing neurons,[3],38.14+/−1.54%
same,reelin expressing neurons,[3],21.18+/−1.28%
same,"BrdU labelled neural progenitors, day 10",[4]; day 10,42.11+/−3.42%
same,"BrdU labelled neural progenitors, day 14",[4]; day 14,28.57+/−2.00%
same,Neurons with PMI superior to the cut-off value,"[5]; cut-off 1.2 μm, of MAP2-positive neurons after 28 days of differentiation",77.23+/−4.17%
same,PMI compared with DDM conditions,"[5]; p<0.001, Mann-Whitney test",significantly higher PMI
same,Neurons showing a unipolar morphology,"[5]; semi-quantitative scoring, MAP2-positive neurons, 28 days",61.39+/−4.84%
same,VGluT1 expressing neurons,[6],70.04+/−2.98%
same,VGluT2 expressing neurons,[6],15.46+/−2.52%
same,Otx1-2 positive neural progenitors,"[7]; cyclopamine 1 μM day 2 to day 10, 14 days of differentiation, of Nestin-positive cells",75.57+/−1.21%
same,Gsh2 expression among neural progenitors,[7]; [9],1.37+/−0.61%
same,Nkx2.1 expression among neural progenitors,[7]; [9],1.87+/−1.10%
same,Nkx2.2 expression among neural progenitors,[7]; [9],4.05+/−1.10%
same,Otx1 expression among neural progenitors,[7]; [9],71.21+/−2.52%
same,Pax6 expression among neural progenitors,[7]; [9],73.03+/−2.44%
same,Effect on the neuralization process (pattern of pan-neural markers),"[7]; different time points, compared with DDM without cyclopamine",did not change significantly
same,GABAergic inhibitory post-synaptic currents (iPSCs) recorded,[1],no or little iPSCs could be recorded
same,Neurons displaying glutamatergic excitatory post-synaptic currents (ePSCs),[1],38.89+/−11.49%
"2,3-dioxo-6-nitro-1,2,3,4-tetrahydrobenzo[f]quinoxaline-7-sulfonamide disodium salt [NBQX]",Inhibition of recorded ePSCs,[1]; [10],selective inhibition
"N[C@H](CCCP(=O)(O)O)C(=O)O [APV, D-(−)-2-amino-5-phosphonopentanoic acid]",Inhibition of recorded ePSCs,[1]; [10],selective inhibition
"Dkk: Dickkopf-1 (Dkk), a soluble antagonist of the Wnt pathway (protein, UniProt O94907 32-266, looked up) Dickkopf-related protein 1: TLNSVLNSNAIKNLPPPLGGAAGHPGSAVSAAPGILYPGGNKYQTIDNYQPYPCAEDEECGTDEYCASPTRGGDAGVQICLACRKRRKRCMRHAMCCPGNYCKNGICVSSDQNHFRGEIEETITESFGNDHSTLDGYSRRTTLSSKMYHTKGQEGSVCLRSSDCASGLCCARHFWSKICKPVLKEGQVCTKHRRKGSHGLEIFQRCYCGEGLSCRIQKDHHQASNSSRLHTCQRH",Proportion of Nkx2.1 positive progenitors,"[8]; 300 ng/ml Dkk, of all Nestin-positive cells",29.0±2.0%
same,Expression of Pax6 among progenitors,"[8]; Dkk 300 ng/ml, of Nestin-positive cells",23.7±1.4%

# — patent US8633025B2, “Generation of neuronal cells from embryonic stem cells” (Universite Libre de Bruxelles, priority 2007, dated 2014)
